Test results from patent US20230183218A1, “CONDENSED SUBSTITUTED HYDROPYRROLES AS ANTAGONISTS OF THE MUSCARINIC ACETYLCHOLINE RECEPTOR M4” (Vanderbilt University, priority 2020, published 2023).

How the values were obtained:
Human M4 = biological target: T1, Human M4 (Homo sapiens, UniProt P08173); test: mAChR M4 cell-based functional assay (calcium flux, antagonist mode vs EC80 acetylcholine), human M4/Gqi5/CHO-K1 cells; conditions: for remaining activity at 30 µM: CHO-K1, % ACh maximum at 30 μM, human M4, read-out: Human M4 Emin (%); for IC50: decrease of response elicited by EC80 acetylcholine, human M4/Gqi5 CHO-K1 cells
T1 construct: expressed in transfected cells; host or cells: CHO-K1 (ATCC), stably co-expressing chimeric G protein Gqi5
T1 sequence (P08173 1-479): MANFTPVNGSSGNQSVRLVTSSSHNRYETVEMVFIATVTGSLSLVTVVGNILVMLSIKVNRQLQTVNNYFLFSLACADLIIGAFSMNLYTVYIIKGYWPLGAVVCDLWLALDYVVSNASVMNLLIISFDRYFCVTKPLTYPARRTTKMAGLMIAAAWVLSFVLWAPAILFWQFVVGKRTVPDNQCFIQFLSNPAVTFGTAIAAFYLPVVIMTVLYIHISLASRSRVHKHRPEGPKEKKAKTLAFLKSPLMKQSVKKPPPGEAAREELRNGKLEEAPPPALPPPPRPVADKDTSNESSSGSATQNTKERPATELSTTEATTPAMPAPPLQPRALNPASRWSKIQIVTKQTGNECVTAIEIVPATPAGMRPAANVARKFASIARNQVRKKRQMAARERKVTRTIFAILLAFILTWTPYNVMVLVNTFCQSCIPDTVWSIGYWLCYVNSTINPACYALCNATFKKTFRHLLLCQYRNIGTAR
How it was run: (§1)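 CHO-K1 cells stably expressing human or rat M4 with Gqi5, Fluo-4 loaded; calcium measured by fluorescence ratio on FDSS. Compound added, then EC20 acetylcholine at 143 s and EC80 at 268 s; IC50 from decrease of EC80 response, four-parameter logistic fit.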

Rat M4 = biological target: T2, Rat M4 (Rattus norvegicus, UniProt P08485); test: mAChR M4 cell-based functional assay (calcium flux, antagonist mode vs EC80 acetylcholine), rat M4/Gqi5/CHO-K1 cells; conditions: for remaining activity at 30 µM: CHO-K1, % ACh maximum at 30 μM, rat M4, read-out: Rat M4 Emin (%); for IC50: decrease of response elicited by EC80 acetylcholine, rat M4/Gqi5 CHO-K1 cells
T2 construct: expressed in transfected cells; host or cells: CHO-K1 (ATCC), stably co-expressing chimeric G protein Gqi5
T2 sequence (P08485 1-478): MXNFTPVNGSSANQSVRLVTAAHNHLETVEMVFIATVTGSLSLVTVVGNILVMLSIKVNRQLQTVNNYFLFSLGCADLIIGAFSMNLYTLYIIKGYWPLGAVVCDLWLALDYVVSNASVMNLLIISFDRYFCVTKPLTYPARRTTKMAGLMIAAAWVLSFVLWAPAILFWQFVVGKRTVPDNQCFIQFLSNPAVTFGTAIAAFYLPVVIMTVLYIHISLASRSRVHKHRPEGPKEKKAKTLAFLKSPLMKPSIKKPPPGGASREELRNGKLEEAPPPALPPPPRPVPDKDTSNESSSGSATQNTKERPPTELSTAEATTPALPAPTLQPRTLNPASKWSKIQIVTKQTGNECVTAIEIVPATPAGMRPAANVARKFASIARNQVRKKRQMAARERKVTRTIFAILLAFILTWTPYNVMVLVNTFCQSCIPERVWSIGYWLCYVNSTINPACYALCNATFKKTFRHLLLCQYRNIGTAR
How it was run: as §1

Row | Compound | remaining activity at 30 µM (Human M4) [%] | IC50 (Human M4) [nM] | remaining activity at 30 µM (Rat M4) [%] | IC50 (Rat M4) [nM]
1 | Cn1cc2cc(-c3ccc(N[C@H]4C[C@@H]5CN(C6CCOCC6)C[C@@H]5C4)nn3)ccc2n1 [compound 62, (3aR,5s,6aS)-N-(6-(2-methyl-2H-indazol-5-yl)pyridazin-3-yl)-2-(tetrahydro-2H-pyran-4-yl)octahydrocyclopenta[c]pyrrol-5-amine] | 9 | 1730 | 11 | 2130
2 | CC1(C)CC(N2C[C@H]3C[C@H](Nc4ccc(Cl)nn4)C[C@H]3C2)CCO1 (stereo partly drawn) [compound 51, (3aR,5s,6aS)-N-(6-chloropyridazin-3-yl)-2-(2,2-dimethyltetrahydro-2H-pyran-4-yl)octahydrocyclopenta[c]pyrrol-5-amine] | 9 | 8560 | 38 | > 10000
3 | Cc1cc(Br)cnc1CN1C[C@H]2C[C@H](Nc3ccc(S(=O)(=O)C4CCCCC4)nn3)C[C@H]2C1 [compound 45, (3aR,5s,6aS)-2-((5-bromo-3-methylpyridin-2-yl)methyl)-N-(6-(cyclohexylsulfonyl)pyridazin-3-yl)octahydrocyclopenta[c]pyrrol-5-amine] | 4 | 20.3 | 3 | 292
4 | Cc1cc(CN2C[C@H]3C[C@H](Nc4ccc(S(=O)(=O)c5ccccc5)nn4)C[C@H]3C2)ccc1F [compound 31, (3aR,5s,6aS)-2-(4-fluoro-3-methylbenzyl)-N-(6-(phenylsulfonyl)pyridazin-3-yl)octahydrocyclopenta[c]pyrrol-5-amine] | 4 | 518 | 3 | 1160
5 | Fc1ccc(Cl)c(-c2ccc(N[C@H]3C[C@@H]4CN(C5CCCC5)C[C@@H]4C3)nn2)c1 [compound 74, (3aR,5s,6aS)-N-(6-(2-chloro-5-fluorophenyl)pyridazin-3-yl)-2-cyclopentyloctahydrocyclopenta[c]pyrrol-5-amine] | 2 | 27.3 | 4 | 933
6 | Cc1cccnc1CN1C[C@H]2C[C@H](Nc3ccc(S(=O)(=O)c4ccccc4)nn3)C[C@H]2C1 [compound 40, (3aR,5s,6aS)-2-((3-methylpyridin-2-yl)methyl)-N-(6-(phenylsulfonyl)pyridazin-3-yl)octahydrocyclopenta[c]pyrrol-5-amine] | 5 | 221 | 15 | 2890
7 | Fc1ccc(Cl)c(-c2ccc(N[C@H]3C[C@@H]4CN(C5CCC6(CCCCC6)CC5)C[C@@H]4C3)nn2)c1 [compound 77, (3aR,5s,6aS)-N-(6-(2-chloro-5-fluorophenyl)pyridazin-3-yl)-2-(spiro[5.5]undecan-3-yl)octahydrocyclopenta[c]pyrrol-5-amine] | 3 | 25.7 | 7 | 387
8 | Fc1ccc(Cl)c(-c2ccc(N[C@H]3C[C@@H]4CN(C5CCSCC5)C[C@@H]4C3)nn2)c1 [compound 15, (3aR,5s,6aS)-N-(6-(2-chloro-5-fluorophenyl)pyridazin-3-yl)-2-(tetrahydro-2H-thiopyran-4-yl)octahydrocyclopenta[c]pyrrol-5-amine] | 7 | 10.2 | 5 | 884
9 | O=S(=O)(c1ccccc1)c1ccc(N[C@H]2C[C@@H]3CN(Cc4ccc5c(c4)OC(F)(F)O5)C[C@@H]3C2)nn1 [compound 26, (3aR,5s,6aS)-2-((2,2-difluorobenzo[d][1,3]dioxol-5-yl)methyl)-N-(6-(phenylsulfonyl)pyridazin-3-yl)octahydrocyclopenta[c]pyrrol-5-amine] | 3 | 1000 | 14 | 3000
10 | O=C(Nc1ccccc1)c1ccc(N[C@H]2C[C@@H]3CN(CC4CCOCC4)C[C@@H]3C2)nn1 [compound 7, N-phenyl-6-(((3aR,5s,6aS)-2-((tetrahydro-2H-pyran-4-yl)methyl)octahydrocyclopenta[c]pyrrol-5-yl)amino)pyridazine-3-carboxamide] | 4 | 572 | 22 | > 10000
11 | CC(C)(O)CN1C[C@H]2C[C@H](Nc3ccc(-c4cc(F)ccc4Cl)nn3)C[C@H]2C1 [compound 73, 1-((3aR,5s,6aS)-5-((6-(2-Chloro-5-fluorophenyl)pyridazin-3-yl)amino)hexahydrocyclopenta[c]pyrrol-2(1H)-yl)-2-methylpropan-2-ol] | 3 | 13.5 | 8 | 1360
12 | O=S(=O)(c1ccccc1)c1ccc(N[C@H]2C[C@@H]3CN(Cc4ncccc4C(F)(F)F)C[C@@H]3C2)nn1 [compound 41, (3aR,5s,6aS)-N-(6-(phenylsulfonyl)pyridazin-3-yl)-2-((3-(trifluoromethyl)pyridin-2-yl)methyl)octahydrocyclopenta[c]pyrrol-5-amine] | 6 | 742 | 20 | 5780
13 | Fc1ccc(Cl)c(-c2ccc(N[C@H]3C[C@@H]4CN(C5CCC(F)(F)CC5)C[C@@H]4C3)nn2)c1 [compound 67, (3aR,5s,6aS)-N-(6-(2-chloro-5-fluorophenyl)pyridazin-3-yl)-2-(4,4-difluorocyclohexyl)octahydrocyclopenta[c]pyrrol-5-amine] | 4 | 2.42 | 13 | 436
14 | CC1(C)CC(N2C[C@H]3C[C@H](Nc4ccc(S(=O)(=O)C5CCCCC5)nn4)C[C@H]3C2)CCO1 (stereo partly drawn) [compound 36, (3aR,5s,6aS)-N-(6-(cyclohexylsulfonyl)pyridazin-3-yl)-2-(2,2-dimethyltetrahydro-2H-pyran-4-yl)octahydrocyclopenta[c]pyrrol-5-amine] | 5 | 51.5 | 7 | 460
15 | Fc1ccc(Cl)c(-c2ccc(N[C@H]3C[C@@H]4CN(C5CCCOC5)C[C@@H]4C3)nn2)c1 (stereo partly drawn) [compound 13, (3aR,5s,6aS)-N-(6-(2-chloro-5-fluorophenyl)pyridazin-3-yl)-2-(tetrahydro-2H-pyran-3-yl)octahydrocyclopenta[c]pyrrol-5-amine] | 3 | 80.2 | 17 | 1400
16 | CC1(C)CC(N2C[C@H]3C[C@H](Nc4ccc(-c5cc(F)ccc5Cl)nn4)C[C@H]3C2)CC(C)(C)O1 [compound 18, (3aR,5s,6aS)-N-(6-(2-chloro-5-fluorophenyl)pyridazin-3-yl)-2-(2,2,6,6-tetramethyltetrahydro-2H-pyran-4-yl)octahydrocyclopenta[c]pyrrol-5-amine] | 4 | 15 | 4 | 513
17 | Cc1cc(CN2C[C@H]3C[C@H](Nc4ccc(S(=O)(=O)C5CCCCC5)nn4)C[C@H]3C2)nn1C [compound 35, (3aR,5s,6aS)-N-(6-(cyclohexylsulfonyl)pyridazin-3-yl)-2-((1,5-dimethyl-1H-pyrazol-3-yl)methyl)octahydrocyclopenta[c]pyrrol-5-amine] | 6 | 181 | 19 | 4810
18 | C=CCN1C(=O)C(C)(C)c2cc(N[C@H]3C[C@@H]4CN(CCC(C)(C)C)C[C@@H]4C3)nnc21 [compound 71, 7-allyl-3-(((3aR,5s,6aS)-2-(3,3-dimethylbutyl)octahydrocyclopenta[c]pyrrol-5-yl)amino)-5,5-dimethyl-5,7-dihydro-6H-pyrrolo[2,3-c]pyridazin-6-one] | 3 | 12.4 | 5 | 369
